Like-named read-outs stand apart in the source and are kept apart here.
Columns and labels:
[1] = system: A2780 cells; assay: In-vitro cell proliferation assay (SRB), A2780 cells; type: cell-based; details: Homo sapiens, A2780, 72 h, A2780 cells, 72 hours, read-out: A2780 IC50
Summary of the method: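 Cells were plated overnight at 37° C., 5% CO2, then exposed to serially diluted compounds (0.1% DMSO final) for 72 hours. Viable cells were measured by sulforhodamine B staining after TCA fixation, read at 570 nm; media-only background was subtracted before % inhibition was calculated.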

[2] = biological target: T1, NAMPT (Homo sapiens, UniProt P43490); assay: Biochemical inhibition assay: NAMPT enzymatic reaction, NMN quantified by mass spectrometry; details: read-out: Biochem IC50
T1 construct: His tag; host or cells: E. coli
T1 sequence (P43490 whole entry): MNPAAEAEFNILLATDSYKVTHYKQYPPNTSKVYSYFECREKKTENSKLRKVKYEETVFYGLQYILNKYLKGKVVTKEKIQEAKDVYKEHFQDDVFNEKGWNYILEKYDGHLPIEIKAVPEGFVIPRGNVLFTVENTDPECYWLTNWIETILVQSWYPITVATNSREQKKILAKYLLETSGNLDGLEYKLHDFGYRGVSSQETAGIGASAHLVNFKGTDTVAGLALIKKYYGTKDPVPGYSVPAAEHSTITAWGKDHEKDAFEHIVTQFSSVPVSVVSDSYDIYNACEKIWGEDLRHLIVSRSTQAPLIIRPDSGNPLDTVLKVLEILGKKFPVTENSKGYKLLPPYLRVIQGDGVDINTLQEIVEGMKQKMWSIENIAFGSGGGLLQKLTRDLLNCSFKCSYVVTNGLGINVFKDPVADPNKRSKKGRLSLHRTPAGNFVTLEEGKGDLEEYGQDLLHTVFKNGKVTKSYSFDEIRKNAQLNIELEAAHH
Summary of the method: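 Inhibition of E. coli-expressed His-tagged human NAMPT, measured as NMN formation by mass spectrometry after a 30 min room-temperature reaction containing 1 μM NAM, 100 μM PRPP and 2.5 mM ATP.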

SMILES	IC50 ([1]; SRB) [nM]	IC50 ([2]; NAMPT enzymatic assay) [nM]	IC50 ([2]; NAMPT enzymatic reaction) [nM]	IC50 ([1]; SRB assay) [nM]
CNS(=O)(=O)c1ccccc1S(=O)(=O)c1ccc(CNC(=O)c2cc3ccncc3o2)cc1	74	51.3	–	–
COc1cc(C)c(S(=O)(=O)c2ccc(CNC(=O)c3cnc4[nH]ncc4c3)cc2)cc1C [N-({4-[(4-methoxy-2,5-dimethylbenzene)sulfonyl]phenyl}methyl)-1H-pyrazolo[3,4-b]pyridine-5-carboxamide]	23.6	–	36.8	–
CN(C)CCc1cccc(S(=O)(=O)c2ccc(CNC(=O)c3cc4ccncc4s3)cc2)c1	1.6	2.5	–	–
CCCOc1ccc(S(=O)(=O)c2ccc(CNC(=O)c3cc4ccncc4o3)cc2)cc1F	11.8	–	6.8	–
O=C(NCc1ccc(S(=O)(=O)c2cccc(Cl)c2)cc1)c1ccc2nccn2c1 [N-({4-[(3-chlorobenzene)sulfonyl]phenyl}methyl)imidazo[1,2-a]pyridine-6-carboxamide]	3.07	–	9.08	–
O=C(NCc1ccc(S(=O)(=O)c2ccc(CO)cc2)cc1)c1ccc2nccn2c1	12.9	14.2	–	–
Cc1ccc(S(=O)(=O)c2ccc(CNC(=O)c3cc4ccncc4s3)cc2)cc1F [N-({4-[(3-fluoro-4-methylbenzene)sulfonyl]phenyl}methyl)thieno[2,3-c]pyridine-2-carboxamide]	–	–	3	2.8
CCOc1ccc(S(=O)(=O)c2ccc(CNC(=O)c3cnc4nccn4c3)cc2)c(C)c1 [N-({4-[(4-ethoxy-2-methylbenzene)sulfonyl]phenyl}methyl)imidazo[1,2-a]pyrimidine-6-carboxamide]	60.7	–	11.7	–
COc1ccc(S(=O)(=O)c2ccc(CNC(=O)c3cnc4nccn4c3)cc2)cc1OC	7.3	–	2.9	–
CC(C)COc1ccc(S(=O)(=O)c2ccc(CNC(=O)c3cc4ccncc4s3)cc2)cc1	10.3	4	–	–
O=C(NCc1ccc(S(=O)(=O)c2cc(C(F)(F)F)ccc2OCc2ccccc2)cc1)c1cc2cnccc2[nH]1	25.9	130	–	–
CCCCOc1ccc(S(=O)(=O)c2ccc(CNC(=O)c3cc4ccncc4o3)cc2)cc1Cl	10	–	4.7	–
Cc1ccc(S(=O)(=O)c2ccc(CNC(=O)c3cc4ccncc4s3)cc2)cc1 [N-({4-[(4-methylbenzene)sulfonyl]phenyl}methyl)thieno[2,3-c]pyridine-2-carboxamide]	–	–	5	5
O=C(NCc1ccc(S(=O)(=O)c2cccc(C(F)(F)F)c2Cl)cc1)c1cnc2nccn2c1	24.6	2.4	–	–
COc1ccc(C(C)C)cc1S(=O)(=O)c1ccc(CNC(=O)c2ccc3nccn3c2)cc1	6.4	35.2	–	–
O=C(NCc1ccc(S(=O)(=O)c2cc(F)ccc2Cl)cc1)c1cc2ccncc2o1	24.8	–	16.3	–
O=C(NCc1ccc(S(=O)(=O)c2ccc(F)cc2)cc1)c1cc2ccncc2s1 [N-({4-[(4-fluorobenzene)sulfonyl]phenyl}methyl)thieno[2,3-c]pyridine-2-carboxamide]	–	–	3	10
O=C(NCc1ccc(S(=O)(=O)c2ccccc2Oc2ccccc2)cc1)c1cc2ccncc2o1	1000 to 10000	–	20.4	–
O=C(NCc1ccc(S(=O)(=O)c2cccc(C(F)(F)F)c2)cc1)c1cnc2nccn2c1	3	2.7	–	–

SMILES	IC50 ([1]; SRB) [nM]	IC50 ([2]; NAMPT enzymatic assay) [nM]	IC50 ([2]; NAMPT enzymatic reaction) [nM]	IC50 ([1]; SRB assay) [nM]
O=C(NCc1ccc(S(=O)(=O)c2cc(Cl)cc(C(F)(F)F)c2)cc1)c1cnc2[nH]ncc2c1 [N-[(4-{[3-chloro-5-(trifluoromethyl)benzene]sulfonyl}phenyl)methyl]-1H-pyrazolo[3,4-b]pyridine-5-carboxamide]	2.73	7.8	–	–
O=C(NCc1ccc(S(=O)(=O)c2ccc(-c3ccccc3)cc2)cc1)c1cc2ccncc2s1	10.6	–	3	–
O=C(NCc1ccc(S(=O)(=O)c2cc(F)ccc2CO)cc1)c1cnc2[nH]ncc2c1 [N-[(4-{[5-fluoro-2-(hydroxymethyl)benzene]sulfonyl}phenyl)methyl]-1H-pyrazolo[3,4-b]pyridine-5-carboxamide]	100 to 1000	109	–	–
O=C(NCc1ccc(S(=O)(=O)c2ccc(F)c(F)c2)cc1)c1cc2ccncc2s1 [N-({4-[(3,4-difluorobenzene)sulfonyl]phenyl}methyl)thieno[2,3-c]pyridine-2-carboxamide]	–	–	9	8.1
O=C(NCc1ccc(S(=O)(=O)c2cccc(Cl)c2F)cc1)c1cc2ccncc2o1	12.8	–	10.9	–
COc1ccc(S(=O)(=O)c2ccc(CNC(=O)c3cc4cnccc4[nH]3)cc2)cc1OC [N-({4-[(3,4-dimethoxybenzene)sulfonyl]phenyl}methyl)-1H-pyrrolo[3,2-c]pyridine-2-carboxamide]	–	–	14	3
CC(C)Oc1ccc(Cl)cc1S(=O)(=O)c1ccc(CNC(=O)c2cnc3nccn3c2)cc1 [N-[(4-{[5-chloro-2-(propan-2-yloxy)benzene]sulfonyl}phenyl)methyl]imidazo[1,2-a]pyrimidine-6-carboxamide]	14.6	4.7	–	–
Cc1cc(C)n(-c2cccc(S(=O)(=O)c3ccc(CNC(=O)c4ccc5nccn5c4)cc3)c2)n1	0.8	7.2	–	–
CC(C)NC(=O)c1cc(S(=O)(=O)c2ccc(CNC(=O)c3cnc4nccn4c3)cc2)ccc1F	85.4	7.7	–	–
O=C(NCc1ccc(S(=O)(=O)c2ccc(OC(F)(F)F)c(F)c2)cc1)c1cnc2nccn2c1	11.8	4	–	–
O=C(NCc1ccc(S(=O)(=O)c2cnn(-c3cccc(Cl)c3)c2)cc1)c1cc2ccncc2o1 [N-({4-[1-(3-chlorophenyl)-1H-pyrazole-4-sulfonyl]phenyl}methyl)furo[2,3-c]pyridine-2-carboxamide]	14	11.6	–	–
Cn1ncc2c(S(=O)(=O)c3ccc(CNC(=O)c4cc5cnccc5[nH]4)cc3)cccc21 [N-{[4-(1-methyl-1H-indazole-4-sulfonyl)phenyl]methyl}-1H-pyrrolo[3,2-c]pyridine-2-carboxamide]	1.5	3.1	–	–
CCCOc1ccc(S(=O)(=O)c2ccc(CNC(=O)c3cc4ccncc4o3)cc2)cc1Cl	11.9	–	4.9	–
CSc1ccc(S(=O)(=O)c2ccc(CNC(=O)c3cc4ccncc4s3)cc2)cc1F	2	2.2	–	–
O=C(Nc1ccc(S(=O)(=O)c2ccccc2)cc1)c1cccnc1 [N-[4-(benzenesulfonyl)phenyl]pyridine-3-carboxamide]	–	–	12000	> 30000
O=C(NCc1ccc(S(=O)(=O)c2cccc(F)c2)cc1)c1cnc2[nH]ncc2c1	25.3	–	33.9	–
O=C(NCc1ccc(S(=O)(=O)c2cnc(N3CCCC3)s2)cc1)c1cc2ccncc2s1 [N-({4-[2-(pyrrolidin-1-yl)-1,3-thiazole-5-sulfonyl]phenyl}methyl)thieno[2,3-c]pyridine-2-carboxamide]	0.7	1.5	–	–
COc1ccc(S(=O)(=O)c2ccc(CNC(=O)c3cc4ccncc4s3)cc2)cc1Cl [N-({4-[(3-chloro-4-methoxybenzene)sulfonyl]phenyl}methyl)thieno[2,3-c]pyridine-2-carboxamide]	1.6	–	5	–
